Row | SMILES | melting point [°C]
1 | COC(=O)c1ccc2c3c([nH]c2c1)-c1[nH]ncc1CC3 [Example 12, Methyl 1,4,5,10-tetrahydropyrazolo[3,4-a]carbazole-8-carboxylate] | 240 to 243
2 | O=C(O)c1cccc2[nH]c3c(c12)CCc1c[nH]nc1-3 [Example 3, 2,4,5,10-Tetrahydropyrazolo[3,4-a]carbazole-6-carboxylic acid] | > 260
3 | O=C(O)c1ccc2c3c([nH]c2c1)-c1n[nH]cc1CC3 [Example 4, 2,4,5,10-Tetrahydropyrazolo[3,4-a]carbazole-8-carboxylic acid] | > 260
4 | O=[N+]([O-])c1ccc2[nH]c3c(c2c1)CCc1c[nH]nc1-3 [Example 1, 7-Nitro-2,4,5,10-tetrahydropyrazolo[3,4-a]carbazole] | > 260
5 | O=C(Nc1ccc2[nH]c3c(c2c1)CCc1cn[nH]c1-3)c1cccs1 [Example 8, N-(1,4,5,10-tetrahydropyrazolo[3,4-a]carbazol-7-yl) thiophene-2-carboxamide] | 176 to 180
6 | CCOC(=O)c1ccc2[nH]c3c(c2c1)CCc1cn[nH]c1-3 [Example 11, Ethyl 1,4,5,10-tetrahydropyrazolo[3,4-a]carbazole-7-carboxylate] | 214 to 216
7 | CC(C)CC(=O)Nc1ccc2[nH]c3c(c2c1)CCc1cn[nH]c1-3 [Example 7, 3-Methyl-N-(1,4,5,10-tetrahydropyrazolo[3,4-a]carbazol-7-yl)butanamide] | 182 to 185
8 | Cl.Nc1ccc2[nH]c3c(c2c1)CCc1cn[nH]c1-3 | 237 to 241
9 | O=C(O)c1ccc2[nH]c3c(c2c1)CCc1c[nH]nc1-3 [Example 2, 2,4,5,10-Tetrahydropyrazolo[3,4-a]carbazole-7-carboxylic acid] | > 260
10 | CCOC(=O)c1[nH]nc2c1CCc1c-2[nH]c2ccccc12 [Example 5, Ethyl 2,4,5,10-tetrahydropyrazolo[3,4-a]carbazole-3-carboxylate] | 224 to 226
11 | Cl.O=C(O)c1n[nH]c2c1CCc1c-2[nH]c2ccccc12 | > 260
12 | CC(C)CNC(=O)c1ccc2[nH]c3c(c2c1)CCc1cn[nH]c1-3 [Example 9, N-isobutyl-1,4,5,10-tetrahydropyrazolo[3,4-a]carbazole-7-carboxamide] | 186 to 190
13 | CN1CCN(C(=O)c2ccc3[nH]c4c(c3c2)CCc2cn[nH]c2-4)CC1 [Example 10, 7-[(4-Methylpiperazin-1-yl)carbonyl]-1,4,5,10-tetrahydropyrazolo[3,4-a]carbazole] | 198 to 205

From patent publication US20060264493A1, “Tetracyclic pyrazole derivatives as kinase inhibitors, process for their preparation and pharmaceutical compositions comprising them” (priority 2003, published 2006)
